“And” between values parts separate entries of the source, which are not always exact repeats. Identical values can stand only once.

The nature of series [1]: Photophysical properties (absorption, fluorescence, quantum yield). It counts as physicochemical. On the procedure: Optical measurement. […] The ADR solution (30 μM) was incubated with KO2 (60 μM) and NAG (40 mU), respectively, in PBS (10 mM, pH 7.4) at 37° C. […] Fluorescence images were acquired using the IVIS spectrum imaging system with excitation at 675±10 nm (640±10 nm for MRPD) and emission at 720±10 nm (760±10 nm for MRPD) and the acquisition time of 0.1 s. Chemiluminescence images were acquired under bioluminescence mode with open filter and the acquisition time of 1 s. The sensing capability of MRPs was analysed through HPLC. UV-Vis and fluorescence spectra of the uncaged fluorophores solution (30 μM) in PBS (10 mM, pH 7.4) were recorded on UV-Vis and fluorescence spectrophotometers.
Measurement of fluorescence quantum yields. ICG was used as a standard with a known fluorescence quantum yield (ϕ) value of 13% in DMSO (R. C. Benson, H. A. Kues, J. Chem. Eng. Data 1977, 22, 379-383). Fluorescence quantum yields were calculated using the following equation: ϕs/ϕf=(As/Af)×(Abss/Absf)×(ηs^2/ηf^2), Where ϕs and ϕf are the fluorescence quantum yields of the standard and the samples, respectively; As and Af are the emission areas of the standard and the samples, respectively; Abss and Absf are the absorbance of the standard and the samples at the wavelength of excitation; ηs and ηf are the refractive indices of the standard and the samples, respectively.

Series [2] in a line: In vivo biodistribution by NIRF imaging. More on the design: species or system mice. The conditions noted are these: i.v., 8 μmol kg^−1 (MRPD 32 μmol kg^−1). The procedure:
All animal studies were performed in compliance with the guidelines set by the Institutional Animal Care and Use Committee (IACUC), Sing Health. Female nude mice (Tac:Cr:(NCr)-Fox1nu, 8 weeks old) were obtained from InVivos Pte Ltd (Singapore). Aged female nude mice (25 weeks old) were obtained by feeding after receive at 8 weeks old. Female Balb/c mice (10 weeks old), male type 2 diabetic BKS-db mice (BKS-Lepr^em2Cd479 with a C57BLKS/J background, 12 weeks old) and male nondiabetic C57BLKS/J wild-type mice (12 weeks) were obtained from Nanjing Biomedical Research Institute of Nanjing University (Nanjing, China). NCr nude mice were i.v. injected with 0.2 ml saline (control), the uncaged fluorophores (CMe, CP2, CP5 and CCD, 8 μmol kg^−1 body weight) or MRPD (32 μmol kg^−1 body weight), and imaged using the IVIS spectrum imaging system at 30 and 60 min post-injection. The abdominal cavity and resected organs from mice were imaged after sacrifice at t=60 min post-injection. Fluorescence images were acquired using the IVIS spectrum imaging system with excitation at 675±10 nm (640±10 nm for MRPD) and emission at 720±10 nm (760±10 nm for MRPD). Fluorescence intensities for each organ were analysed by the region of interest (ROI) analysis using the Living Image 4.3 Software (3 mice were analysed for each sample).

Series [3] in a line: Renal clearance efficiency studies (urine HPLC). The series is classed as in vivo. The conditions noted are these: healthy mice, i.v. On the procedure:
NCr nude mice were i.v. injected with the uncaged fluorophores (CMe, CP2, CP5 and CCD, 8 μmol kg^−1 body weight), MRPs1-3 (8 μmol kg^−1 body weight) or MRPD (32 μmol kg^−1 body weight) and placed in metabolic cages (3 mice were analysed for each sample). […] Urine was collected at 1, 3, 6, 9 and 24 h post-injection, centrifuged at 4500 r.p.m. for 8 min and filtered by 0.22 μm syringe filter. Excretion of the uncaged fluorophores and MRPs in the urine was quantified using HPLC. Mice were sacrificed to image resected organs after 24 h urine collection. Fluorescence intensities for resected organs were analysed by the ROI analysis using the Living Image 4.3 Software. Major organs were collected, homogenised in PBS buffer (10 mM, pH 7.4) and centrifuged at 4500 r.p.m for 15 min to remove insoluble components. Fluorescence intensities of the final supernatants were measured on fluorescence spectrophotometer.
Mice were i.v. injected with ADR (30 μmol kg^−1 body weight) and placed in metabolic cages. Urine was collected at 1, 3, 6, 9 and 24 h post-injection, diluted in PBS and centrifuged at 4500 r.p.m. for 10 min and filtered by 0.22 μm syringe filter. ADR in the urine was quantified using HPLC. The absorption and fluorescence spectra were measured for the urine samples. […]

The conditions of series [4]: in 3 h, Patients; cited from earlier work.

Turning to `C[N+]1=C(/C=C/C2=C3Oc4cc(O)ccc4C=C3CCC2)C(C)(C)c2ccccc21` [CMe], in series [1], the Stokes shift was found to be 25 nm. Further, in series [1] (PBS pH 7.4), the “λab, wavelength of maximum absorbance” value was 690 nm and 697 nm; the “λem, wavelength of maximum emission” value was 720 nm and 722 nm. Besides, the “biodistribution at 1 h post-injection (ex vivo NIRF)” value in series [2] is “mainly accumulated in the liver, gallbladder, and intestine”. For the same compound, the “renal clearance efficiency at 24 h post-injection” value in series [3] is “nearly undetectable in urine”. Further, the “Renal clearance efficiency (%)” value in series [3] (Table 5) was less than 5%.

With `O=C([O-])CN=C([O-])CN=C([O-])CN=C([O-])C[S-].[O-2].[Tc+4]` [^99mTc-MAG3], in series [4], the Renal clearance efficiency is 90% ID in 3 h.

The values above are taken from patent US12296027B2, “Molecular renal probes for detecting acute kidney injury” (Nanyang Technological University, priority 2019, dated 2025).
